Results as given in US8486381B2, “Methods of modulating intestinal fluid balance” (Amgen Inc., priority 2005, dated 2013).
Entries after “also recorded” stand apart in the source; their conditions may differ. Where a name gives a salt, the structure may show the parent alone. Read-outs that look alike come from different tables or passages of the source.

What was measured:
[1] = system: rat colonic crypts; assay: Absorptive fluid movement (netJv with secretion inhibited) in perfused rat colonic crypts; format: cell-based
[2] = system: cyclic AMP; assay: Secretagogue-stimulated cyclic AMP accumulation in colonic crypt cell suspensions; format: cell-based
[3] = system: apical NHE (Na^+/H^+ exchanger); assay: NHE activity: Na^+-dependent proton extrusion from colonocytes; format: cell-based, rat; conditions: forskolin present
From the text: Cyclic nucleotide-dependent fluid loss in secretory […] occurs through reduction in absorptive, and increases in secretory, processes. Lucas, M. L. J. Appl. Microbiol. 90, 7-26, 2001; Golin-Bisello, F. et al. Am. J. Cell. Physiol. 289, […]-[…], 2005. Colonic epithelial crypts provide a model for understanding intestinal fluid transport as they simultaneously absorb and secrete fluid with the direction of net fluid movement (^netJv) depending on the relative magnitudes of these two processes. A major component of fluid absorption in the colon is mediated by parallel Na^+/H^+ (sodium-hydrogen exchanger, NHE) and Cl^-/HCO3^- exchange located at the apical plasma membranes. Kunzelman, K. et al. Physiol. Rev. 82, 245-289, 2002; Donowith, M. et al. Annu. Rev. Physiol. 48, 135-150, 1986. Cyclic nucleotides reduce this Na^+-dependent fluid absorption by inhibiting NHE activity. […] This basal fluid was likely due to the low levels of cell cyclic nucleotides that remain even in the absence of secretagogues. […] To examine if this latter effect of CaSR agonists on fluid absorption resulted from enhanced apical NHE activity, the effects of Ca^2+ on Na^+-dependent proton extrusion from colonocytes were assessed in the presence of forskolin. […] Cell acid loading was accomplished by exposure to NH4Cl and Na^+-dependent cell pH recovery following removal of NH4Cl was assessed as an index of Na^+/H^+ activity. […]

[4] = system: colonic crypts from Casr^−/−:Gcm2^−/− mice; assay: Net Jv in perfused colonic crypts from CaSR null mice; format: cell-based; conditions: for Effect on net fluid secretion induced by Guanylin and CTX: Casr^−/−:Gcm2^−/−
[5] = system: basolateral Cl^− entry into colonic crypt cells via NKCCl; assay: Cell Cl^− influx measurements (MQAE fluorescence) in colonic crypts; format: cell-based, rat
Procedure: Cl^− Measurements. Cell Cl^− influx measurements (Egan, M. E. et al. Nat. […] Molecular Probes]. After dye loading, crypts were incubated in a Cl^− free HEPES buffer until stable high baseline fluorescence intensity was achieved. Rates of cell Cl^− influx were monitored as rates of reductions in arbitrary MQAE fluorescent units (ΔAFU/min; Ex: 346 nm; EM: 460 nm).

[6] = system: colonic crypts from Casr^+/+:Gcm2^+/+ mice; assay: Net Jv in perfused colonic crypts from wild type mice; format: cell-based; conditions: for Effect on net fluid secretion induced by Guanylin and CTX: Casr^+/+:Gcm2^+/+
[7] = system: isolated rat colonic crypts; assay: Net fluid movement (Jv) in in vitro perfused rat colonic crypts; format: cell-based; conditions: for EC50: Rattus norvegicus, read-out: EC50, attenuation of forskolin-induced net fluid secretion, forskolin 10 μM, 0.1 mM Ca^2+; for Effect on net fluid secretion in presence of forskolin and PLC inhibitor U73122: U73122 10 μM, 0.1 mM calcium
[8] = system: proximal and distal colon crypts; format: cell-based, Sprague-Dawley rats
[9] = system: BALB/c mice; conditions: mouse, in vivo
[10] = system: BALB/c mice; conditions: mouse, in vivo; remark: listed apart in the source
[11] = system: cyclic GMP; assay: Secretagogue-stimulated cyclic GMP accumulation in colonic crypt cell suspensions; format: cell-based; conditions: IBMX 1 mM
[12] = system: proximal or distal colon segments; format: cell-based, Sprague-Dawley rats
[13] = extracellular calcium raised from 0.1 mM to 2 mM

## [Ca+2] [Ca^2+]
[1]; extracellular Ca^2+ increased to 2 mM
  Effect on cAMP-mediated reduction in fluid absorption: significantly abrogated
[2]
  Effect on forskolin or cholera toxin induced cyclic AMP production: attenuates
[3]; basolateral bath Ca^2+ raised from 0.1 to 2 mM
  Increase in NHE activity: 8 fold
[4]; [13]
  Effect on net fluid secretion induced by Guanylin and CTX: did not
[5]; calcium increased from 0.1 to 2 mM
  Effect on Cl^− entry via NKCCl in the presence of CTX: inhibited Cl^− entry
[6]; [13]
  Effect on net fluid secretion induced by Guanylin and CTX: reversed net fluid secretion
[7]
  Effect on net fluid secretion induced by Guanylin or STa: reversed net fluid secretion
  Effect on net fluid secretion induced by forskolin or cholera toxin: reversed net fluid secretion

## COc1cccc([C@@H](C)NCCCc2ccccc2Cl)c1.Cl [Compound A, N-(3-[2-chlorophenyl]-propyl)-R-α-methyl-3-methoxybenzylamine HCl]
[1]; added to basolateral bath in the presence of 0.5 mM calcium
  Effect on cAMP-mediated reduction in fluid absorption: significantly abrogated
[3]; Compound A added to the 2 mM Ca^2+-containing bath
  Increase in NHE activity: 12 fold
[4]; 100 nM, 0.1 mM calcium
  Effect on net fluid secretion induced by Guanylin and CTX: did not reverse net fluid secretion
[5]; 100 nM in basolateral fluid
  Effect on rate of forskolin-stimulated Cl^− entry: significantly reduced
[6]; 100 nM, 0.1 mM calcium
  Effect on net fluid secretion induced by Guanylin and CTX: effectively reversed net fluid secretion
[8]
  Effect on forskolin-induced net fluid secretion in presence of TTX: attenuated forskolin-induced net fluid secretion
[7]; compound in bath
  EC50: 0.0051 nM
[7]; compound in lumen
  EC50: 0.0234 nM
[7]; compound added to both luminal and bath
  Effect on net fluid secretion in presence of forskolin and PLC inhibitor U73122: did not completely reverse net fluid secretion
[7]; compound added to lumen or bath
  Effect on net fluid secretion in presence of forskolin and PLC inhibitor U73122: had no significant effect on reversing net fluid secretion

## COc1cccc(C(C)NCCCc2ccccc2Cl)c1 (stereo not drawn) [Compound A, S-stereoisomer, N-(3-[2-chlorophenyl]-propyl)-α-methyl-3-methoxybenzylamine HCl]
[7]; compound in bath
  EC50: 0.619 nM
[7]; compound in lumen
  EC50: 0.756 nM

## COc1ccc(CNC(C)c2ccccc2)cc1-c1ccc(C(F)(F)F)cc1 (stereo not shown) [Compound B, N-((6-(methyloxy)-4′-(trifluoromethyl)-1,1′-biphenyl-3-yl)methyl)-1-phenylethanamine]
[9]
  Mortality 24 hrs (moribund): 2/5
  Volume of fluid accumulating in the small intestine: dose-dependent reduction
[10]
  Cholera toxin-induced gastrointestinal fluid accumulation: statistically significant reduction

## Cn1c(NC[C@@H](N)Cc2ccccc2)nc(-c2ccncc2)c(-c2ccc3ccccc3c2)c1=O [Compound C, 2-(((2S)-2-amino-3-phenylpropyl)amino)-3-methyl-5-(2-naphthalenyl)-6-(4-pyridinyl)-4(3H)-pyrimidinone]
[9]; female, BALB/c
  Mortality: 100%

## CC(C)Cn1c(=O)n(C)c(=O)c2[nH]cnc21 [IBMX, 3-Isobutyl-1-Methylxanthine]
[2]; IBMX added (1 mM per method)
  Effect on attenuation of cyclic AMP production by 2.0 mM Ca^2+: reverses this effect
[11]
  Effect on attenuation of cyclic GMP production by 2.0 mM Ca^2+: reverses this effect

## NC1=N[C@H](O)[C@H]2[C@H]3O[C@]4(O)O[C@@H]([C@@H](O)[C@@]2(N1)[C@@H]4O)[C@]3(O)CO [TTX, tetrodotoxin]
[12]
  Effect on ability of calcimimetics to reverse forskolin-stimulated increase in Isc: abolished
[8]
  Effect on forskolin-induced net fluid secretion: did not change the ability of forskolin to induce a net fluid secretion

## CCCCNc1cc(C(=O)O)cc(S(N)(=O)=O)c1Oc1ccccc1 [bumetanide]
[1]; added to basolateral bath
  netJv in the absence of secretagogues: increased the positive or absorptive ^netJv
[5]; 100 μM basolateral
  Effect on forskolin-stimulated increase in cell Cl^−: abolished

## CCCC(=O)Nc1ncnc2c1ncn2[C@@H]1O[C@@H]2COP(=O)(O)O[C@H]2[C@H]1OC(=O)CCC [db-cyclic AMP, dibutyryl-cAMP]
[1]; in the presence of bumetanide
  Absorptive fluid movement: substantially reduced

## C=C[C@@]1(C)CC(=O)[C@]2(O)[C@@]3(C)[C@@H](O)CCC(C)(C)[C@@H]3[C@H](O)[C@H](OC(C)=O)[C@@]2(C)O1 [forskolin]
[8]
  Mean Jv, distal colonic crypts: −0.33±0.01 nL/min/mm
  Mean Jv, proximal colonic crypts: −0.32±0.02 nL/min/mm

## Guanylin
[4]
  Net fluid movement (Jv) on exposure to secretagogue: induced net fluid secretion
[6]
  Net fluid movement (Jv) on exposure to secretagogue: induced net fluid secretion
[7]
  Net fluid movement (Jv) on exposure to secretagogue: induced net fluid secretion

## cholera toxin
[2]
  cAMP production on exposure to secretagogue: induce cAMP production; also recorded: induce cyclic AMP production
[4]
  Net fluid movement (Jv) on exposure to secretagogue: induced net fluid secretion
[6]
  Net fluid movement (Jv) on exposure to secretagogue: induced net fluid secretion
[7]
  Net fluid movement (Jv) on exposure to secretagogue: induced net fluid secretion
